Key:
Panc-1 cells = test: ATP contents in Panc-1 cells; assay type: cell-based, human; conditions: 1 hour incubation in serum free media
Protocol: (§1) Human pancreatic cancer cell lines (Panc-1, MiaPaca2, BXPC3, Aspc 1), human hepatoma cell line (HuH7), human gastric cancer cell lines (AGS, MKN45), human colon cancer cell line (CoCM-1), human mammary cancer cell line (MCF-7), human neuroblastoma (SH-SY5Y), human prostate cancer cells (PC3), and murine Ehrlich ascites cancer cells and mouse 3T3-L1 fibroblasts were obtained from American Type Culture Collection (Rockville, Md., USA). The cancer cells were cultured in RPMI 1640 containing 10% fetal calf serum. Cultures were maintained at 37° C. in a humidified atmosphere of 5% CO2.

[1] = system: C57B/6 mice on high-fat diets; test: Intravenous administration of IG1, mice on high-fat diets; assay type: in vivo
Protocol: (§2) Male C57BL/6 mice were housed individually and given free access to a standard diet (65% carbohydrate, 4% fat, and 24% protein) or a high-fat diet (Quick Fat; 60.2% carbohydrate, 15.3% fat, and 24.5% protein; Clea Japan, Tokyo, Japan), starting at 5 weeks of age, for 5 weeks. Db/db mice also were housed individually and given free access to a standard diet. C57BL/6 mice at 5 weeks of age, were received a single dose of 75 μg/g body weight streptozotoxin (STZ). 7 days after injections, the mice, whose fasting plasma glucose concentrations were over 400 mg/dl, were used as STZ-diabetic mice. […]
(§3) Frozen livers were homogenized, and triglycerides were extracted with CHCl3:CH3OH (2:1, vol:vol), dried and resuspended in 2-propanol (17). Triglyceride contents were measured using Lipidos liquid (TOYOBO, Osaka, Japan). […] Glycogen content was determined by the phenol-sulfuric acid spectrophotometric method at 490 nm (18) and expressed as micrograms of glycogen per milligram of liver.
(§4) Blood glucose was assayed with Glucose Ace (Sanwa Kagaku Kenkyusho, Nagoya, Japan). Serum insulin and leptin were determined with ELISA kits (Morinaga Institute of Biological Science, Yokohama, Japan). Serum adiponectin and tumor necrosis factor-α (TNF-α) concentrations were measured with an ELISA kit (Ohtsuka Pharmaceutical, Tokyo, Japan) and a TNF-α assay kit (Amersham Biosciences, Uppsala, Sweden), respectively. […]

Aspc1 = test: Cell proliferation / cell death assay, Aspc1; assay type: cell-based, human; conditions: Aspc1, 10-100 μM
Protocol: as §1
(§5) Cell proliferation assays were performed with the CellTiter 96 AQueous One Solution Cell Proliferation Assay kit according to the manufacturer's instructions (Promega, Madison, Wis., USA). Briefly, 5×10^3 cells/well in medium were placed onto 96-well plates. IGs were added to cellular cultures at final concentrations of 0, 1, 10, and 100 μM. Cultures were incubated for 3 days or 7 days and then added to 20 μL/well of CellTiter 96 AQueous One Solution Reagent, which contains a tetrazolium compound, 3-(4,5-dimethylthiazol-2-yl)-5-(3-carboxymethoxyphenyl)-2-(4-sulfophenyl)-2H-tetrazolium, an inner salt; MTS was added to the culture medium. After incubating the plate for 1 h in a CO2 incubator, absorbance at 490 nm was recorded with a 96-well plate reader.

human hepatoma (HuH7) = test: Cell proliferation / cell death assay, HuH7; assay type: cell-based; conditions: HuH7, 10-100 μM
Protocol: as §1
as §5, with “Cultures were incubated for 3 days or 7 days and then added to 20 μL/well” left out

[2] = system: human colon cancer cells (CoCM-1); test: Cell proliferation / cell death assay, CoCM-1; assay type: cell-based; conditions: CoCM-1, 10-100 μM
Protocol: as §1, §5

[3] = system: human umbilical vein endothelial cells (HUVEC); test: Cell death of human umbilical vein endothelial cells; assay type: cell-based; conditions: in 1 hour
[4] = system: Ehrlich ascites cancer cells; test: Animal survival analysis, ddY mice bearing Ehrlich ascites cancer cells; assay type: in vivo; conditions: daily intraperitoneal for 7 days
Protocol: Male ddy mice weighing 20-30 g obtained from and maintained on a standard diet and water ad libitum. Ehrlich ascites cancer cells (5×10^6 cells) were injected intraperitoneal to the mice. After 7 days later, the mice were subjected to daily intraperitoneal injection of IG1 or IG1 plus alkyl-acyl-phosphatidic acids (AAPAs) for additional 7 days. The endpoint of experiment was determined by spontaneous death of animals.

STZ-diabetic mice = test: Intraperitoneal IG1 for 7 days, STZ-diabetic mice; assay type: in vivo
Protocol: as §2, §3, §4

[5] = system: human normal cultured cells; test: Proliferation of human normal cultured cells; assay type: cell-based; conditions: 1-100 μM, data not shown
Protocol: Human primary culture cells, dermal fibroblasts, epidermal keratinocytes and umbilical vein endothelial cells were purchased from Cell Applications (San Diego, Calif., USA) and cultured according to the manufacturer's instructions.
as §5

CCCCCCCCCCCCCCCC(=O)O[C@@H]1C(O)C(O)[C@H](O)C(O[C@H]2OC(CO)[C@@H](O)[C@H](O)C2N)C1O (stereo in doubt) [IG1, 2-Amino-2-deoxy-α-D-glucopyranosyl-(1→6)-2-palmitoyl-D-myo-inositol]
ATP contents (Panc-1 cells): does not affect ATP contents | plasma glucose concentrations ([1]; intravenous, 0.3-1 mg per mice, 90-300 min after administration): significantly reduced plasma glucose concentrations | hepatic and muscular glycogen contents ([1]; mice on high-fat diets, data not shown): significantly increases hepatic and muscular glycogen contents | rapid cancer cell death (Aspc1): rapid cancer cell death was demonstrated | rapid cancer cell death (human hepatoma (HuH7)): rapid cancer cell death was demonstrated | rapid cancer cell death [2]: rapid cancer cell death was demonstrated | cell death of HUVEC [3]: induces rapid cell death | survival times [4]: did not affect the survival times | hepatic and muscular glycogen synthesis (STZ-diabetic mice; intraperitoneal 7 days, data not shown): increases hepatic and muscular glycogen synthesis | fasting plasma glucose concentrations (STZ-diabetic mice; intraperitoneal, 0.3 mg per mice, for every 7 days): significantly reduced fasting plasma glucose concentrations | proliferation of human normal cultured cells [5]: did not affect the proliferation

From patent publication US20100197625A1, “SYNTHETIC LIPOPHILIC INOSITOL GLYCANS FOR TREATMENT OF CANCER AND GLUCOSE-METABOLISM DISORDERS” (priority 2006, published 2010)
